By residual activity is commonly meant the signal under treatment as a percentage of the control signal. By IC50 is commonly meant the concentration that inhibits the measured activity by half. Read a low IC50 as greater potency.

Assay [1] concerns the target CSNK2A1 or CSNK2A2 (human) (UniProt P19784+P68400). The settings on record: ATP 100 µM.
Assay [2] addresses MAPKAPK2 (human) (UniProt P49137). The settings on record: ATP 100 µM.
Assay [3] deals with LCK (human) (UniProt P06239). The settings on record: ATP 100 µM.
Sequence of LCK (human) (P06239 whole entry, looked up): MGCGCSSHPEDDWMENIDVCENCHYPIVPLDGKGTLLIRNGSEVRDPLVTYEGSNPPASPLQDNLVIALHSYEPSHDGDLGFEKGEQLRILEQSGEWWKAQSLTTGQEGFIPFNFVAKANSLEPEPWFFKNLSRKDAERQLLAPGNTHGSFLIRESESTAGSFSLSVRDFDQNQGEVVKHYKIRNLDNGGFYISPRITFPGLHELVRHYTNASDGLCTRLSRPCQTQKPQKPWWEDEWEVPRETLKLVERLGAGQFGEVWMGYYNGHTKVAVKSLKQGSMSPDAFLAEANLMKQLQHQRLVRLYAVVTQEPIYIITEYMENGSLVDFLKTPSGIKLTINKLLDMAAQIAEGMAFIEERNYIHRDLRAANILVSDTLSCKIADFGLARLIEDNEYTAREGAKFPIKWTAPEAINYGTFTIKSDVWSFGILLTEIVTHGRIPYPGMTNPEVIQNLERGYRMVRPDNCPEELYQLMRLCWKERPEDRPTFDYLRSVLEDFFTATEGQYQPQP
The test system of assay [4] is RPS6KB1 (human), P23443 [T412E]. The note with it: ATP 100 µM.
Assay [5] relates to ROCK2 (rat). The note with it: accession and sequence are those of the human protein.
Assay [6] has as its target RPS6KA5 KD1 KD2 (human) (UniProt O75582). The settings on record: ATP 100 µM.
In assay [7] the target is MAPK8 (human) (UniProt P45983). The settings on record: ATP 100 µM.
Sequence of MAPK8 (human) (P45983 whole entry, looked up): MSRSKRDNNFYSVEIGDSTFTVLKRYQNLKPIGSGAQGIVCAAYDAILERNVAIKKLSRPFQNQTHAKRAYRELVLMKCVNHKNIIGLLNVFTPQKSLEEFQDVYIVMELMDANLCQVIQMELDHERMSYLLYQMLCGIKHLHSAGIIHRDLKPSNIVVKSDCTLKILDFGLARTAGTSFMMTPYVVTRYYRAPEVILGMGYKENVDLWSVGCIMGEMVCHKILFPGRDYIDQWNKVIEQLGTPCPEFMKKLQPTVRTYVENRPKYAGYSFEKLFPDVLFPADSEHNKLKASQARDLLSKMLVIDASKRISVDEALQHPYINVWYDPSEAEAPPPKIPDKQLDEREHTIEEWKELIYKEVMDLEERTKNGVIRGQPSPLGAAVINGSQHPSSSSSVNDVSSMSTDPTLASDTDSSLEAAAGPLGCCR
For assay [8], the system named is SGK1 (human), O00141 [S422D]. The note with it: ATP 100 µM.
Sequence of SGK1 (human), O00141 [S422D] (O00141 whole entry S422D, looked up): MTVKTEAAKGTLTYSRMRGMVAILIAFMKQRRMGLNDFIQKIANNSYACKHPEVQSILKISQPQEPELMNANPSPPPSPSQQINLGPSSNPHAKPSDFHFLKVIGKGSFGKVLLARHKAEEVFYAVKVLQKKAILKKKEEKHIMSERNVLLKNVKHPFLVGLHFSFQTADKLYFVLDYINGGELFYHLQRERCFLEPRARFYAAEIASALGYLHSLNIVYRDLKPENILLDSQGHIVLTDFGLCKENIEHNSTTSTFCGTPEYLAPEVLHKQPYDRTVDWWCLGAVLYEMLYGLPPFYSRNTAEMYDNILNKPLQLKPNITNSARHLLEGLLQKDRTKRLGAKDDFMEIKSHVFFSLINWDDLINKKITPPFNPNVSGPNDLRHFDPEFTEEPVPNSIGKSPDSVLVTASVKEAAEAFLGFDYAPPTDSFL
In assay [9] the test system is MAP2K1 (rabbit). The settings on record: compound 1.0 µM; accession and sequence are those of the human protein.
Assay [10] deals with AKT1 (human) (UniProt P31749). The note with it: compound 1.0 µM; ATP 100 µM.
Assay [11] deals with PDPK1 (human) (UniProt O15530). The note with it: ATP 100 µM.
Sequence of PDPK1 (human) (O15530 whole entry, looked up): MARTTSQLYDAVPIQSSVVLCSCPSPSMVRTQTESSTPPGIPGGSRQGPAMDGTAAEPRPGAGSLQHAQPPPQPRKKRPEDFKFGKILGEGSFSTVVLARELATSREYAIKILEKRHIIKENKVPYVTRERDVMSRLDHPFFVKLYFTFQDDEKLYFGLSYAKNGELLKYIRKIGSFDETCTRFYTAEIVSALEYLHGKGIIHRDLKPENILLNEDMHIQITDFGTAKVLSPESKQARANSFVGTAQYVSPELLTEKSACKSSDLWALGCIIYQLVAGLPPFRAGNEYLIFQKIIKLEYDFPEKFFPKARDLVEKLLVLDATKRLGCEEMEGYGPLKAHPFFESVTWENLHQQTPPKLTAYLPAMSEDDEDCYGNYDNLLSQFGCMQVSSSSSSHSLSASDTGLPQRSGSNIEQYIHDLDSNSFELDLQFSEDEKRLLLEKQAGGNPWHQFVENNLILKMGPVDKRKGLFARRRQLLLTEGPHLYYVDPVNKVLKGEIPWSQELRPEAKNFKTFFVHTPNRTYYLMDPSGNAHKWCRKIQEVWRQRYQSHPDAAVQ
The target of assay [12] is PRKCA (human) (UniProt P17252). The note with it: ATP 100 µM.
For assay [13], the target named is MAPK12 (human) (UniProt P53778). The settings on record: ATP 100 µM.
Sequence of MAPK12 (human) (P53778 whole entry, looked up): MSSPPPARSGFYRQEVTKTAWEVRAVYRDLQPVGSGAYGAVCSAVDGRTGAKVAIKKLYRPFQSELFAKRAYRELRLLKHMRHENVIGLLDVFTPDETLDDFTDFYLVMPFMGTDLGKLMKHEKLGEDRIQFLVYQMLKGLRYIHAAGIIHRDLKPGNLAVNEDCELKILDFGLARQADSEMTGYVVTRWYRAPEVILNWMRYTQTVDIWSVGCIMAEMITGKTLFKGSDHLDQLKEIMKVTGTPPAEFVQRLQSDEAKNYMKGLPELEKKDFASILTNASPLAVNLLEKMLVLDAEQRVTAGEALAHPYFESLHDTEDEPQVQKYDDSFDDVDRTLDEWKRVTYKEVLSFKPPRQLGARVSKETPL
The target of assay [14] is GSK3B (human) (UniProt P49841). The note with it: ATP 100 µM.
Sequence of GSK3B (human) (P49841 whole entry, looked up): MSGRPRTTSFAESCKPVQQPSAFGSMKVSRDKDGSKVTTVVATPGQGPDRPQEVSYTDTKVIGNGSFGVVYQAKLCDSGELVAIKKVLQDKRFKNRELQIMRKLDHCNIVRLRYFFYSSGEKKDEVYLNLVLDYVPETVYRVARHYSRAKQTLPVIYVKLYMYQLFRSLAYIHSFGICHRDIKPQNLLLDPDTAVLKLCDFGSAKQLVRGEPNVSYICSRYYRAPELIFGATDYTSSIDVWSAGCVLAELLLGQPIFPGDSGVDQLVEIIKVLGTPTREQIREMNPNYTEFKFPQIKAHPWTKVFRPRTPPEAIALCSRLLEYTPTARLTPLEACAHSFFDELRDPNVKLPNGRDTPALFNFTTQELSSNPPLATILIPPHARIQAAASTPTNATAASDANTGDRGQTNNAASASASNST
In assay [15] the target is CHEK1 (human) (UniProt O14757). The note with it: ATP 100 µM.
The test system of assay [16] is PRKAA1 or PRKAA2 (rat). Kind of assay: radiometric filter-binding kinase assay. The settings on record: compound 1.0 µM; ATP 100 µM; accession and sequence are those of the human protein.
Assay [17] concerns PHKG1 or PHKG2 (rabbit). Put plainly: radiometric filter-binding kinase assay. The settings on record: compound 1.0 µM; ATP 100 µM; accession and sequence are those of the human protein.
Assay [18] deals with PRKACA or PRKACB (cow). Put plainly: radiometric filter-binding kinase assay. The note with it: compound 1.0 µM; accession and sequence are those of the human protein.
Assay [19] deals with PHKG1 or PHKG2 (rabbit). The note with it: compound 10.0 µM; accession and sequence are those of the human protein.
Assay [20] addresses MAP2K4 (human) (UniProt P45985). The note with it: compound 10.0 µM; ATP 100 µM.
For assay [21], the target named is MAPK11 (human) (UniProt Q15759). The settings on record: ATP 100 µM.
Sequence of MAPK11 (human) (Q15759 whole entry, looked up): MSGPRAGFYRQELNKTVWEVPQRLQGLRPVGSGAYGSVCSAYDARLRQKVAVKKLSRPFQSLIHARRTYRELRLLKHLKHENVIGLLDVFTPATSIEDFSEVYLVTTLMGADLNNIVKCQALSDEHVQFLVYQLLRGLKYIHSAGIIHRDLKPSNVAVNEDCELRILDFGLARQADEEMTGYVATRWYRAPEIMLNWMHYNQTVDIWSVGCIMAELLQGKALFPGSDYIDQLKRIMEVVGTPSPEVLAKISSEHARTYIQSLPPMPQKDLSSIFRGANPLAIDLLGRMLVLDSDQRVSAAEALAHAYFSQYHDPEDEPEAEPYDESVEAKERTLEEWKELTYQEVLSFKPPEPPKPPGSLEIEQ
The subject of assay [22] is MAPK1 (mouse). The settings on record: compound 10.0 µM; accession and sequence are those of the human protein.
Assay [23] concerns PRKAA1 or PRKAA2 (rat). The settings on record: compound 10.0 µM; accession and sequence are those of the human protein.
The target in assay [24] is MAPK13 (human) (UniProt O15264). The note with it: ATP 100 µM.
Assay [25] concerns RPS6KA3 KD1 KD2 (rabbit). The settings on record: compound 10.0 µM; accession and sequence are those of the human protein.
The target in assay [26] is MAP2K7 (human) (UniProt O14733). The note with it: compound 10.0 µM; ATP 100 µM.
For assay [27], the target named is MAP2K6 (human) (UniProt P52564). The settings on record: compound 10.0 µM; ATP 100 µM.
In assay [28] the test system is PRKACA or PRKACB (cow). The settings on record: compound 10.0 µM; accession and sequence are those of the human protein.
The target in assay [29] is MAP2K3 (human) (UniProt P46734). The settings on record: compound 10.0 µM; ATP 100 µM.
For assay [30], the target named is MAPKAPK5 (human) (UniProt Q8IW41). The note with it: compound 1.0 µM; ATP 100 µM.
The target of assay [31] is MAPK14 (human) (UniProt Q16539). The settings on record: compound 1.0 µM; ATP 100 µM.
Assay [32] has as its system PIK3CG (cow). The settings on record: compound 1.0 µM; accession and sequence are those of the human protein.
Assay [33] deals with MYLK (chicken). The note with it: accession and sequence are those of the human protein.
Assay [34] relates to RPS6KA3 KD1 KD2 (rabbit). Put plainly: radiometric filter-binding kinase assay. The settings on record: compound 1.0 µM; ATP 100 µM; accession and sequence are those of the human protein.
Assay [35] concerns MYLK2 (rabbit). Put plainly: radiometric filter-binding kinase assay. The settings on record: compound 1.0 µM; ATP 100 µM; accession and sequence are those of the human protein.
The test system of assay [36] is MYLK (chicken). Kind of assay: radiometric filter-binding kinase assay. The settings on record: compound 1.0 µM; accession and sequence are those of the human protein.
Assay [37] concerns the target CAMK2A or CAMK2B or CAMK2D or CAMK2G (human) (UniProt Q13555+Q13557+Q9UQM7+Q13554). The note with it: compound 1.0 µM; ATP 100 µM.

Sequence of RPS6KA5 KD1 KD2 (human) (O75582 whole entry, looked up): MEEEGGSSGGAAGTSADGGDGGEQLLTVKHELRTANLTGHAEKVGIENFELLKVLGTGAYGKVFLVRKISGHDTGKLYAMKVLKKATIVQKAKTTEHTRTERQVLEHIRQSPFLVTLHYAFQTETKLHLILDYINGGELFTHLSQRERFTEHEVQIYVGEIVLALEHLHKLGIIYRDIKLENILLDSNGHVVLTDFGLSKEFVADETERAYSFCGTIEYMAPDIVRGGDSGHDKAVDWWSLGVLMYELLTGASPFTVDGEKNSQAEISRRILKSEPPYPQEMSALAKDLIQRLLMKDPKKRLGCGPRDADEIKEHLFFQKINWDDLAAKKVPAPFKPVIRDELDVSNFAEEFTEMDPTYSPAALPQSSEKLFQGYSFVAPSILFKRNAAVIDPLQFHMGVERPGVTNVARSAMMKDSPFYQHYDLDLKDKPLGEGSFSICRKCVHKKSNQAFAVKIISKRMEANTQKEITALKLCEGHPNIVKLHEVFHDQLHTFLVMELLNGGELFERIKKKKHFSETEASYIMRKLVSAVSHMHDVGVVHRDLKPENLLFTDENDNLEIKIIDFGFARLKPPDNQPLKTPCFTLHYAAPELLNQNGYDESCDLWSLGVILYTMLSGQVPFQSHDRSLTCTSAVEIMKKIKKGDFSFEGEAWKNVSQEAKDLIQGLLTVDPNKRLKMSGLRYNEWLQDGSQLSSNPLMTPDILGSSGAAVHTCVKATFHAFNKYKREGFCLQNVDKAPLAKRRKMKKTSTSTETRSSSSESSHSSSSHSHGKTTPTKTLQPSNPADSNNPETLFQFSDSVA
Sequence of MAPKAPK2 (human) (P49137 whole entry, looked up): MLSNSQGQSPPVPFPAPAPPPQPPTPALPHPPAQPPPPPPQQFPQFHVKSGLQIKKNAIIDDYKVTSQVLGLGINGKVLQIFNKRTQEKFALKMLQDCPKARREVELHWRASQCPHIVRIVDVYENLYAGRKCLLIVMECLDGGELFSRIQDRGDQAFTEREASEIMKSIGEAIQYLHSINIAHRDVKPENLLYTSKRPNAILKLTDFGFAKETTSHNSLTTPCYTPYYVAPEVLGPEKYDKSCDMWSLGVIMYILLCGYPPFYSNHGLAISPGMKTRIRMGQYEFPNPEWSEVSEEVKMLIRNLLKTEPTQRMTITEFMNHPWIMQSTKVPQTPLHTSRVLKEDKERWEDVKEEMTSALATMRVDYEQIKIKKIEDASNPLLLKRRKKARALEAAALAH

On to `CO[C@H]1CC2CC[C@@H](C)[C@@](O)(O2)C(=O)C(=O)N2CCCC[C@H]2C(=O)OC([C@H](C)C[C@@H]2CC[C@@H](O)[C@H](OC)C2)CC(=O)[C@H](C)/C=C(\C)[C@@H](O)[C@@H](OC)C(=O)[C@H](C)C[C@H](C)/C=C/C=C/C=C/1C` (some centres not stated), for which the residual activity in assay [1] (compound 1.0 µM) turned out to be 104%; in assay [2] (compound 1.0 µM) it was 125%; in [3] (compound 1.0 µM) it was 102%; in assay [4] (compound 1.0 µM) it was 109%; in [5] (compound 1.0 µM), 92%; in assay [6] (compound 1.0 µM), 104%. For the same compound, the residual activity in assay [7] (compound 1.0 µM) came to 98%; in assay [8] (compound 1.0 µM), 108%; in assay [9] it was 99%; in [10], 91%; in [11] (compound 1.0 µM), 110%; in [12] (compound 1.0 µM), 99%. Besides, the residual activity was determined as 100% in assay [13] (compound 1.0 µM); 89% in [14] (compound 1.0 µM); 102% in assay [15] (compound 1.0 µM); 106% in assay [16]; 103% in assay [17]; 104% in assay [18].
As for `CCCCCCOC(=O)[C@@]1(O)C[C@H]2O[C@]1(C)n1c3ccccc3c3c4c(c5c6ccccc6n2c5c31)C(=O)NC4`, the residual activity in assay [19] turned out to be 0%.
With `N#CC(=C(\N)Sc1ccccc1N)/C(C#N)=C(/N)Sc1ccccc1N`, the residual activity is 107% in assay [1] (compound 10.0 µM); 81% in [20]; 102% in assay [2] (compound 10.0 µM); 87% in assay [3] (compound 10.0 µM); 90% in assay [21] (compound 10.0 µM); 92% in [4] (compound 10.0 µM). Also, the residual activity in [22] was 92%; in assay [23] it was 85%; in [5] (compound 10.0 µM) it was 94%; in [24] (compound 10.0 µM), 111%; in assay [25], 88%; in assay [6] (compound 10.0 µM), 104%. For the same compound, the residual activity turned out to be 96% in [7] (compound 10.0 µM); 91% in assay [8] (compound 10.0 µM); 89% in assay [26]; 79% in [27]; 101% in assay [19]; 99% in assay [11] (compound 10.0 µM). Also, the residual activity in assay [28] came to 95%; in assay [12] (compound 10.0 µM), 92%; in assay [13] (compound 10.0 µM) it was 100%; in assay [14] (compound 10.0 µM) it was 105%; in assay [15] (compound 10.0 µM), 95%; in assay [29], 114%.
With `COC[C@H]1OC(=O)c2coc3c2[C@@]1(C)C1=C(C3=O)[C@@H]2CCC(=O)[C@@]2(C)C[C@H]1OC(C)=O`, the residual activity in [1] (compound 1.0 µM) amounted to 98%; in [30], 85%; in assay [2] (compound 1.0 µM), 102%; in [3] (compound 1.0 µM), 95%; in assay [21] (compound 1.0 µM), 74%; in assay [4] (compound 1.0 µM), 106%. Moreover, the residual activity turned out to be 86% in assay [31]; 91% in assay [5] (compound 1.0 µM); 99% in assay [6] (compound 1.0 µM); 97% in assay [7] (compound 1.0 µM); 101% in assay [8] (compound 1.0 µM); 0% in assay [32]. Moreover, the residual activity in [9] stood at 96%; in [10], 96%; in [11] (compound 1.0 µM) it was 88%; in assay [12] (compound 1.0 µM) it was 100%; in assay [13] (compound 1.0 µM), 75%; in [15] (compound 1.0 µM) it was 99%. The residual activity came to 106% in assay [16]; 92% in assay [34]; 100% in assay [17]; 104% in assay [35]; 4% in assay [36]; 97% in assay [18]. In addition, the IC50 in assay [33] stood at 260 nM.
In the case of `CN1C(=O)C(c2c[nH]c3ccccc23)=C(c2c[nH]c3ccccc23)C1=O`, the residual activity in assay [17] amounted to 100%.
For `O=C1NCc2c1c1c3ccccc3[nH]c1c1[nH]c3ccccc3c21`, the residual activity in assay [19] came to 0%.
On to `CN[C@@H]1C[C@@H]2O[C@@](C)([C@@H]1OC)n1c3ccccc3c3c4c(c5c6ccccc6n2c5c31)C(=O)N[C@@H]4O`, for which the residual activity in assay [1] (compound 1.0 µM) worked out at 77%; in assay [30] it was 77%; in assay [2] (compound 1.0 µM), 90%; in [3] (compound 1.0 µM), 7%; in assay [4] (compound 1.0 µM), 28%; in assay [31] it was 92%. Further, the residual activity was 22% in assay [5] (compound 1.0 µM); 91% in assay [24] (compound 1.0 µM); 19% in [6] (compound 1.0 µM); 98% in assay [7] (compound 1.0 µM); 90% in assay [9]; 31% in assay [10]. Further, the residual activity in assay [37] is 69%; in [11] (compound 1.0 µM), 0%; in [12] (compound 1.0 µM), 1%; in [13] (compound 1.0 µM), 76%; in assay [14] (compound 1.0 µM), 83%; in [15] (compound 1.0 µM), 3%. Besides, the residual activity in assay [16] amounted to 1%; in assay [34], 5%; in assay [17], 0%; in assay [18] it was 39%.

(Values after the kinase profiling compilation of Christmann-Franck et al. (2016).)
